Laboratory results published in PubChem BioAssay (NCI).
“And” between values parts separate entries of the source, which are not always exact repeats. Equal values may be shown once.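 Five compound concentrations were applied to cells in 96-well plates for 48 hours; endpoints were derived by simple linear interpolation of the resulting dose-response curve. GI50 = concentration required for 50% inhibition of growth. At the TGI there is no net growth.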

Columns and labels:
Assay in all cases: DTP human tumour cell line panel, 48 h
IGROV1 ovarian = tested on: IGROV1 ovarian
SF-268 CNS = tested on: SF-268 CNS
U251 CNS = tested on: U251 CNS
786-0 renal = tested on: 786-0 renal
TK-10 renal = tested on: TK-10 renal
MALME-3M melanoma = tested on: MALME-3M melanoma
NCI/ADR-RES ovarian = tested on: NCI/ADR-RES ovarian
MDA-MB-231 breast = tested on: MDA-MB-231 breast
BT-549 breast = tested on: BT-549 breast
MDA-MB-435 = tested on: MDA-MB-435

Compound	TGI (IGROV1 ovarian)	TGI (SF-268 CNS)	TGI (U251 CNS)	TGI (786-0 renal)	TGI (TK-10 renal)	GI50 (IGROV1 ovarian)	GI50 (SF-268 CNS)	GI50 (U251 CNS)	GI50 (786-0 renal)	GI50 (TK-10 renal)	GI50 (MALME-3M melanoma)	TGI (MALME-3M melanoma)	GI50 (NCI/ADR-RES ovarian)	TGI (NCI/ADR-RES ovarian)	GI50 (MDA-MB-231 breast)	TGI (MDA-MB-231 breast)	GI50 (BT-549 breast)	TGI (BT-549 breast)	GI50 (MDA-MB-435)	TGI (MDA-MB-435)
CC1=NN(C(=O)Nc2ccccc2)C(=O)C2CCC(=O)N12 (stereo not given)	> 100 µM	> 100 µM	> 100 µM	> 100 µM	> 100 µM															
[Cl-].[Dy+3].[O-]/N=C(\c1ccccc1)c1ccccn1.[O-]/N=C(\c1ccccc1)c1ccccn1.[O-]/N=C(\c1ccccc1)c1ccccn1	> 100 µM	98.9 µM	> 100 µM	96.6 µM	> 100 µM	33.1 µM	30.2 µM	47.5 µM	32.2 µM	46.3 µM	34.4 µM	> 100 µM								
O=C1CCC2(c3ccc(F)cc3)Nc3cc(Cl)ccc3N12 (stereo not given)	> 100 µM	> 100 µM	> 100 µM	> 100 µM								> 100 µM								
CC/C(=C(/c1ccc(O)cc1)c1ccc(OCCNC)cc1)c1ccccc1	7.66 µM	7.27 µM	2.93 µM	3.27 µM	7.76 µM	2.77 µM	2.48 µM	1.54 µM	1.64 µM	2.76 µM			2.32 µM	5.85 µM	1.39 µM	3.09 µM	3.37 µM	13.9 µM	1.54 µM	2.98 µM
C/C(CC(=O)Nc1ccc(C)cc1C)=N/N=C(N)N	> 100 µM	> 100 µM	> 100 µM	> 100 µM	> 100 µM							> 100 µM								
O=C1O[C@@H](c2ccc3c(c2)OCO3)C2C(=O)O[C@@H](c3ccc4c(c3)OCO4)C12 (stereo not given in full)	> 100 µM	> 100 µM	> 100 µM	> 100 µM	> 100 µM															
CCC(C)c1c(Cl)nc(Cl)nc1Cl (stereo not given)	34.5 µM	> 100 µM	15.4 µM	30 µM	41.3 µM							> 100 µM		> 100 µM				4.65 µM		9.1 µM
NC(=O)C(=O)N/N=C(\CC1(O)C(=O)Nc2ccccc21)c1ccc2ccccc2c1 (stereo not given)	> 100 µM	> 100 µM	76.4 µM	> 100 µM	> 100 µM							> 100 µM								
O=C1/C(=C/c2ccccc2)CNC/C1=C\c1ccccc1	3.63 µM	9.34 µM	1.37 µM	2.93 µM	7.61 µM							9.3 µM								
O=c1c2cc([N+](=O)[O-])ccc2sc2ccsc12	> 100 µM	> 100 µM	> 100 µM	> 100 µM								> 100 µM								
CC(C)(CC(=O)Nc1ccccc1)C(=O)O	> 100 µM		> 100 µM	> 100 µM	> 100 µM									> 100 µM		> 100 µM		> 100 µM		> 100 µM
Nc1cc(N)c2nc(-c3ccccc3)c(Nc3ccc(Cl)c(Cl)c3)nc2c1	21.1 µM	28.6 µM	> 100 µM	37 µM	30.1 µM	4.92 µM	12 µM	4.68 µM	14.7 µM	13.7 µM	10.3 µM	24.3 µM	15.4 µM	55.3 µM	5.72 µM	27.8 µM			2.16 µM	4.59 µM
Cc1cc2c(cc1C)[n+](=O)c(C(=O)C/C(=N/NC(=O)CC#N)C(=O)Nc1ccccc1C(F)(F)F)c(C)n2[O-]	> 100 µM	> 100 µM	> 100 µM	> 100 µM	> 100 µM							> 100 µM								
COC12C=C(C)C(CC1)CC2C(=O)O (stereo not given)	> 100 µM	> 100 µM	> 100 µM	> 100 µM	> 100 µM							> 100 µM								
CC(C)(C)C1C=C(Sc2ccccc2)C(=O)O1 (stereo not given)	> 100 µM	> 100 µM	> 100 µM	> 100 µM	> 100 µM							> 100 µM								
COc1ccc(C2=CC3CCC2C3)cc1 (stereo not given)	> 100 µM	> 100 µM	> 100 µM	> 100 µM	> 100 µM							> 100 µM								
CC[C@@H]1C(=O)N(C)c2cnc(Nc3ccc(C(=O)NC4CCN(C)CC4)cc3OC)nc2N1C1CCCC1	4.15 µM and 11.8 µM	> 10 µM and 7.8 µM	> 10 µM and 7.79 µM	1.62 µM and 3.98 µM	> 7.36 µM and 5.56 µM		0.0156 µM and < 0.01 µM	0.00492 µM and < 0.01 µM	0.025 µM and 0.0451 µM	0.285 µM and 0.123 µM	1.12 µM and 1.37 µM	2.57 µM and 3.39 µM	0.351 µM and 0.244 µM	> 10 µM and 19 µM	0.00552 µM	3.21 µM	0.0948 µM and 0.0414 µM	> 10 µM and 12.2 µM		
COc1ccc(/C=C/CN(C)CCc2ccccc2)cc1OC	> 100 µM	> 100 µM	> 100 µM	> 100 µM	> 100 µM							> 100 µM								
CCC[CH2][Sn]([CH2]CCC)([O]C(=O)c1cccnc1SC)[O]C(=O)c1cccnc1SC	2.72 µM	2.01 µM	1.84 µM	1.98 µM	1.69 µM	1.38 µM	0.65 µM	0.596 µM	0.67 µM	0.527 µM	0.295 µM	1.49 µM								
COC(=O)C1Cc2c(n(Cc3ccccc3)c3ccccc23)C(CCC(=O)O)N1C(C)C (stereo not given)	> 100 µM	> 100 µM	> 100 µM	> 100 µM	> 100 µM							> 100 µM								
CC1=CC(=Nc2ccc(N(CCCl)CCCl)cc2)C=C(C)C1=O		2.85 µM	7.33 µM	2.39 µM	5.55 µM		0.409 µM	1.02 µM	0.457 µM	1.94 µM	1.84 µM	6.49 µM	1.09 µM	10.1 µM	2.85 µM	9.32 µM	1.46 µM	3.16 µM	1.67 µM	4.55 µM
COc1cc(C2=C(c3ccccc3)COC2=O)cc(OC)c1OC	> 56.5 µM	> 76.5 µM	> 100 µM	> 100 µM	> 30.6 µM	5.82 µM	2.39 µM	5.86 µM	4.3 µM	1.37 µM	0.439 µM	> 100 µM			3.2 µM	> 100 µM	33.9 µM	> 100 µM	0.168 µM	0.645 µM
C/C(CC(=O)Nc1cc(Cl)c(Cl)cc1Cl)=N\NC(N)=O	> 100 µM	> 100 µM	> 100 µM	> 100 µM	> 100 µM							> 100 µM								
